Data reported in ChEMBL document CHEMBL4476880, “beta-arrestin effectors and compositions and methods of use thereof” (2013).
Active and inactive are the calls of the source. The rule behind the calls is not given here.

Experiments:
Canis familiaris [1] = test: Suppression of right arterial pressure in paced dog model of acute heart failure at 0.01 to 100 ug/kg/min dosed as dose escalation regime with duration of 30 mins for each dose; type: functional, organism-based; conditions: Canis lupus familiaris
Rattus norvegicus [2] = test: Effect on heart rate in normal anesthetized rat at 0.1 to 10 ug/kg/min, iv; type: ADME, organism-based; conditions: in vivo
Canis familiaris [3] = test: Suppression of mean arterial pressure in paced dog model of acute heart failure at 0.01 to 100 ug/kg/min dosed as dose escalation regime with duration of 30 mins for each dose; type: functional, organism-based; conditions: Canis lupus familiaris
Rattus norvegicus [4] = test: Effect on vascular and cardiac function in normal anesthetized rat assessed as increase in slope of end systolic pressure volume relationship at 0.1 to 10 ug/kg/min, iv; type: functional, organism-based
Canis familiaris [5] = test: Preservation of cardiac output in paced dog model of acute heart failure at 0.01 to 100 ug/kg/min dosed as dose escalation regime with duration of 30 mins for each dose; type: functional, organism-based; conditions: Canis lupus familiaris
Canis familiaris [6] = test: Increase in urine output in paced dog model of acute heart failure at 0.01 to 100 ug/kg/min dosed as dose escalation regime with duration of 30 mins for each dose; type: functional, organism-based; conditions: Canis lupus familiaris
Canis familiaris [7] = test: Effect on renal function parameters in paced dog model of acute heart failure assessed as maintenance of urine potassium at 0.01 to 100 ug/kg/min dosed as dose escalation regime with duration of 30 mins for each dose; type: functional, organism-based; conditions: Canis lupus familiaris
Rattus norvegicus [8] = test: Effect on vascular and cardiac function in normal anesthetized rat assessed as reduction in mean arterial pressure at 0.1 to 10 ug/kg/min, iv; type: functional, organism-based
Canis familiaris [9] = test: Increase in urine sodium excretion in paced dog model of acute heart failure at 0.01 to 100 ug/kg/min dosed as dose escalation regime with duration of 30 mins for each dose; type: functional, organism-based; conditions: Canis lupus familiaris
Rattus norvegicus [10] = test: Effect on vascular and cardiac function in normal anesthetized rat assessed as preservation of pre-recruitable stroke work at 0.1 to 10 ug/kg/min, iv; type: functional, organism-based
Canis familiaris [11] = test: Effect on renal function parameters in paced dog model of acute heart failure assessed as maintenance of glomerular filtration rate at 0.01 to 100 ug/kg/min dosed as dose escalation regime with duration of 30 mins for each dose; type: functional, organism-based; conditions: Canis lupus familiaris
Canis familiaris [12] = test: Suppression of systemic vascular resistance in paced dog model of acute heart failure at 0.01 to 100 ug/kg/min dosed as dose escalation regime with duration of 30 mins for each dose; type: functional, organism-based; conditions: Canis lupus familiaris
Rattus norvegicus [13] = test: Effect on vascular and cardiac function in normal anesthetized rat assessed as reduction in vaso-constriction at 0.1 to 10 ug/kg/min, iv; type: functional, organism-based
Canis familiaris [14] = test: Suppression of renal vascular resistance in paced dog model of acute heart failure at 0.01 to 100 ug/kg/min dosed as dose escalation regime with duration of 30 mins for each dose; type: functional, organism-based; conditions: Canis lupus familiaris
Canis familiaris [15] = test: Increase in renal blood flow in paced dog model of acute heart failure at 0.01 to 100 ug/kg/min dosed as dose escalation regime with duration of 30 mins for each dose; type: functional, organism-based; conditions: Canis lupus familiaris
Rattus norvegicus [16] = test: Effect on vascular and cardiac function in normal anesthetized rat assessed as preservation of stroke volume at 0.1 to 10 ug/kg/min, iv; type: functional, organism-based
Canis familiaris [17] = test: Suppression of pulmonary capillary wedge pressure in paced dog model of acute heart failure at 0.01 to 100 ug/kg/min dosed as dose escalation regime with duration of 30 mins for each dose; type: functional, organism-based; conditions: Canis lupus familiaris

CC[C@H](C)[C@H](NC(=O)[C@H](Cc1ccc(O)cc1)NC(=O)[C@@H](NC(=O)[C@H](CCCNC(=N)N)NC(=O)CNC)C(C)C)C(=O)N[C@@H](Cc1cnc[nH]1)C(=O)N1CCC[C@H]1C(=O)N[C@H](C)C(=O)O [TRV-120027]
Activity (Canis familiaris [1]): Dose-dependent effect | Activity (Rattus norvegicus [2]): Non-Toxic | Activity (Canis familiaris [3]): Dose-dependent effect | Activity (Rattus norvegicus [4]): Active | Activity (Canis familiaris [5]): Dose-dependent effect | Activity (Canis familiaris [6]): Dose-dependent effect | Activity (Canis familiaris [7]): Dose-dependent effect | Activity (Rattus norvegicus [8]): Dose-dependent effect | Activity (Canis familiaris [9]): Dose-dependent effect | Activity (Rattus norvegicus [10]): Active | Activity (Canis familiaris [11]): Dose-dependent effect | Activity (Canis familiaris [12]): Dose-dependent effect | Activity (Rattus norvegicus [13]): Active | Activity (Canis familiaris [14]): Dose-dependent effect | Activity (Canis familiaris [15]): Dose-dependent effect | Activity (Rattus norvegicus [16]): Active | Activity (Canis familiaris [17]): Dose-dependent effect
